These are literature values, as cited in patent publication US20220401389A1, “TRANSMUCOSAL THERAPEUTIC SYSTEM CONTAINING AGOMELATINE” (LTS LOHMANN Therapie-Systeme AG, priority 2019, published 2022).

[1] abbreviates: patients with moderate hepatic impairment compared to healthy subjects.

Bounds are passed on as bounds.

Turning to `COc1ccc2cccc(CCNC(C)=O)c2c1` [agomelatine, N-(2-(7-Methoxy-1-naphthyl)ethyl)acetamide], for the setting “oral”, the oral absorption is on record as above 80% and the overall bioavailability result is recorded as “less than 5%”. In addition, under setting [1], the “increase of AUC” value is reported as “up to 140 fold” and the increase of cmax entry is recorded as “up to 140 fold”.
